# Test results: ChEMBL document CHEMBL1151757, “Synthesis, radiosynthesis, and biological evaluation of fluorine-18-labeled 2beta-carbo(fluoroalkoxy)-3beta-(3'-((Z)-2-haloethenyl)phenyl)nortropanes: candidate radioligands for in vivo imaging of the serotonin transporter with positron emission tomography” (J Med Chem, 2008)
# System: not listed separately
# Test: Ratio of drug uptake in occipital lobe to cerebellum in anesthetized cynomolgus monkey after 95 mins postinjection
# Type: ADME, organism-based, Macaca fascicularis
# Details: in vivo
row,Compound,Ratio
1,O=C(OCC[18F])C1C2CCC(CC1c1cccc(/C=C\I)c1)N2 (stereo unspecified),0.9

# System: Caudate
# Test: Drug uptake in anesthetized cynomolgus monkey brain caudate after 12.5 mins postinjection
# Type: ADME, organism-based, Macaca fascicularis, Caudate nucleus
# Details: in vivo
row,Compound,Drug uptake
1,O=C(OCC[18F])C1C2CCC(CC1c1cccc(/C=C\I)c1)N2 (stereo unspecified),2.74

# System: Pons
# Test: Drug uptake in anesthetized cynomolgus monkey brain pons after 0.5 mins postinjection
# Type: ADME, organism-based, Macaca fascicularis
# Details: in vivo
row,Compound,Drug uptake
1,O=C(OCC[18F])C1C2CCC(CC1c1cccc(/C=C\I)c1)N2 (stereo unspecified),0

# System: Putamen
# Test: Drug uptake in anesthetized cynomolgus monkey brain putamen after 155 mins postinjection
# Type: ADME, organism-based, Macaca fascicularis
# Details: in vivo
row,Compound,Drug uptake
1,O=C(OCC[18F])C1C2CCC(CC1c1cccc(/C=C\I)c1)N2 (stereo unspecified),3.13

# System: Thalamus
# Test: Drug uptake in anesthetized cynomolgus monkey brain thalamus after 125 mins postinjection
# Type: ADME, organism-based, Macaca fascicularis
# Set-up: unit not given here
# Details: in vivo
row,Compound,Drug uptake
1,O=C(OCC[18F])C1C2CCC(CC1c1cccc(/C=C\I)c1)N2 (stereo unspecified),3.41

# System: Caudate
# Test: Drug uptake in anesthetized cynomolgus monkey brain caudate after 225 mins postinjection
# Type: ADME, organism-based, Macaca fascicularis, Caudate nucleus
# Details: in vivo, 3.75 h
row,Compound,Drug uptake
1,O=C(OCC[18F])C1C2CCC(CC1c1cccc(/C=C\I)c1)N2 (stereo unspecified),2.02

# System: Caudate
# Test: Drug uptake in anesthetized cynomolgus monkey brain caudate after 75 mins postinjection
# Type: ADME, organism-based, Macaca fascicularis, Caudate nucleus
# Details: in vivo, 1.25 h
row,Compound,Drug uptake
1,O=C(OCC[18F])C1C2CCC(CC1c1cccc(/C=C\I)c1)N2 (stereo unspecified),3.62

# System: not listed separately
# Test: Ratio of drug uptake in medulla to cerebellum in anesthetized cynomolgus monkey after 9.5 mins postinjection
# Type: ADME, organism-based, Macaca fascicularis
# Details: in vivo
row,Compound,Ratio
1,O=C(OCC[18F])C1C2CCC(CC1c1cccc(/C=C\I)c1)N2 (stereo unspecified),0.9

# System: not listed separately
# Test: Drug uptake in anesthetized cynomolgus monkey brain occipital lobe after 35 mins postinjection
# Type: ADME, organism-based, Macaca fascicularis
# Details: in vivo
row,Compound,Drug uptake
1,O=C(OCC[18F])C1C2CCC(CC1c1cccc(/C=C\I)c1)N2 (stereo unspecified),3.15

# System: Caudate
# Test: Drug uptake in anesthetized cynomolgus monkey brain caudate after 45 mins postinjection
# Type: ADME, organism-based, Macaca fascicularis, Caudate nucleus
# Details: in vivo, 0.75 h
row,Compound,Drug uptake
1,O=C(OCC[18F])C1C2CCC(CC1c1cccc(/C=C\I)c1)N2 (stereo unspecified),3.67

# System: not listed separately
# Test: Ratio of drug uptake in midbrain to cerebellum in anesthetized cynomolgus monkey after 135 mins postinjection
# Type: ADME, organism-based, Macaca fascicularis
# Details: in vivo, 2.25 h
row,Compound,Ratio
1,O=C(OCC[18F])C1C2CCC(CC1c1cccc(/C=C\I)c1)N2 (stereo unspecified),2

# System: not listed separately
# Test: Ratio of drug uptake in putamen to cerebellum in anesthetized cynomolgus monkey after 75 mins postinjection
# Type: ADME, organism-based, Macaca fascicularis
# Details: in vivo, 1.25 h
row,Compound,Ratio
1,O=C(OCC[18F])C1C2CCC(CC1c1cccc(/C=C\I)c1)N2 (stereo unspecified),1.4

# System: Pons
# Test: Drug uptake in anesthetized cynomolgus monkey brain pons after 65 mins postinjection
# Type: ADME, organism-based, Macaca fascicularis
# Details: in vivo
row,Compound,Drug uptake
1,O=C(OCC[18F])C1C2CCC(CC1c1cccc(/C=C\I)c1)N2 (stereo unspecified),3.2

# System: Midbrain
# Test: Drug uptake in anesthetized cynomolgus monkey brain midbrain after 65 mins postinjection
# Type: ADME, organism-based, Macaca fascicularis
# Set-up: unit not given here
# Details: in vivo
row,Compound,Drug uptake
1,O=C(OCC[18F])C1C2CCC(CC1c1cccc(/C=C\I)c1)N2 (stereo unspecified),4.91

# System: not listed separately
# Test: Ratio of drug uptake in occipital lobe to cerebellum in anesthetized cynomolgus monkey after 105 mins postinjection
# Type: ADME, organism-based, Macaca fascicularis
# Details: in vivo, 1.75 h
row,Compound,Ratio
1,O=C(OCC[18F])C1C2CCC(CC1c1cccc(/C=C\I)c1)N2 (stereo unspecified),1

# System: Midbrain
# Test: Drug uptake in anesthetized cynomolgus monkey brain midbrain after 235 mins postinjection
# Type: ADME, organism-based, Macaca fascicularis
# Details: in vivo
row,Compound,Drug uptake
1,O=C(OCC[18F])C1C2CCC(CC1c1cccc(/C=C\I)c1)N2 (stereo unspecified),2.94

# System: Putamen
# Test: Drug uptake in anesthetized cynomolgus monkey brain putamen after 9.5 mins postinjection
# Type: ADME, organism-based, Macaca fascicularis
# Set-up: unit not given here
# Details: in vivo
row,Compound,Drug uptake
1,O=C(OCC[18F])C1C2CCC(CC1c1cccc(/C=C\I)c1)N2 (stereo unspecified),3.07

# System: Pons
# Test: Drug uptake in anesthetized cynomolgus monkey brain pons after 85 mins postinjection
# Type: ADME, organism-based, Macaca fascicularis
# Details: in vivo
row,Compound,Drug uptake
1,O=C(OCC[18F])C1C2CCC(CC1c1cccc(/C=C\I)c1)N2 (stereo unspecified),3.13

# System: Thalamus
# Test: Drug uptake in anesthetized cynomolgus monkey brain thalamus after 145 mins postinjection
# Type: ADME, organism-based, Macaca fascicularis
# Set-up: unit not given here
# Details: in vivo
row,Compound,Drug uptake
1,O=C(OCC[18F])C1C2CCC(CC1c1cccc(/C=C\I)c1)N2 (stereo unspecified),3.16

# System: Midbrain
# Test: Drug uptake in anesthetized cynomolgus monkey brain midbrain after 135 mins postinjection
# Type: ADME, organism-based, Macaca fascicularis
# Details: in vivo, 2.25 h
row,Compound,Drug uptake
1,O=C(OCC[18F])C1C2CCC(CC1c1cccc(/C=C\I)c1)N2 (stereo unspecified),3.97

# System: Putamen
# Test: Drug uptake in anesthetized cynomolgus monkey brain putamen after 27.5 mins postinjection
# Type: ADME, organism-based, Macaca fascicularis
# Set-up: unit not given here
# Details: in vivo
row,Compound,Drug uptake
1,O=C(OCC[18F])C1C2CCC(CC1c1cccc(/C=C\I)c1)N2 (stereo unspecified),4.16

# System: not listed separately
# Test: Ratio of drug uptake in pons to cerebellum in anesthetized cynomolgus monkey after 105 mins postinjection
# Type: ADME, organism-based, Macaca fascicularis
# Details: in vivo, 1.75 h
row,Compound,Ratio
1,O=C(OCC[18F])C1C2CCC(CC1c1cccc(/C=C\I)c1)N2 (stereo unspecified),1.3

# System: Putamen
# Test: Drug uptake in anesthetized cynomolgus monkey brain putamen after 165 mins postinjection
# Type: ADME, organism-based, Macaca fascicularis
# Details: in vivo, 2.75 h
row,Compound,Drug uptake
1,O=C(OCC[18F])C1C2CCC(CC1c1cccc(/C=C\I)c1)N2 (stereo unspecified),3.02

# System: Thalamus
# Test: Drug uptake in anesthetized cynomolgus monkey brain thalamus after 27.5 mins postinjection
# Type: ADME, organism-based, Macaca fascicularis
# Set-up: unit not given here
# Details: in vivo
row,Compound,Drug uptake
1,O=C(OCC[18F])C1C2CCC(CC1c1cccc(/C=C\I)c1)N2 (stereo unspecified),4.02

# System: Putamen
# Test: Drug uptake in anesthetized cynomolgus monkey brain putamen after 75 mins postinjection
# Type: ADME, organism-based, Macaca fascicularis
# Set-up: unit not given here
# Details: in vivo, 1.25 h
row,Compound,Drug uptake
1,O=C(OCC[18F])C1C2CCC(CC1c1cccc(/C=C\I)c1)N2 (stereo unspecified),4.28

# System: Midbrain
# Test: Drug uptake in anesthetized cynomolgus monkey brain midbrain after 115 mins postinjection
# Type: ADME, organism-based, Macaca fascicularis
# Set-up: unit not given here
# Details: in vivo
row,Compound,Drug uptake
1,O=C(OCC[18F])C1C2CCC(CC1c1cccc(/C=C\I)c1)N2 (stereo unspecified),4.18

# System: Medulla
# Test: Drug uptake in anesthetized cynomolgus monkey brain medulla after 135 mins postinjection
# Type: ADME, organism-based, Macaca fascicularis
# Details: in vivo, 2.25 h
row,Compound,Drug uptake
1,O=C(OCC[18F])C1C2CCC(CC1c1cccc(/C=C\I)c1)N2 (stereo unspecified),3.24

# System: not listed separately
# Test: Ratio of drug uptake in caudate to cerebellum in anesthetized cynomolgus monkey after 9.5 mins postinjection
# Type: ADME, organism-based, Macaca fascicularis
# Details: in vivo
row,Compound,Ratio
1,O=C(OCC[18F])C1C2CCC(CC1c1cccc(/C=C\I)c1)N2 (stereo unspecified),0.7

# System: Pons
# Test: Drug uptake in anesthetized cynomolgus monkey brain pons after 15.5 mins postinjection
# Type: ADME, organism-based, Macaca fascicularis
# Details: in vivo
row,Compound,Drug uptake
1,O=C(OCC[18F])C1C2CCC(CC1c1cccc(/C=C\I)c1)N2 (stereo unspecified),2.82

# System: Medulla
# Test: Drug uptake in anesthetized cynomolgus monkey brain medulla after 155 mins postinjection
# Type: ADME, organism-based, Macaca fascicularis
# Details: in vivo
row,Compound,Drug uptake
1,O=C(OCC[18F])C1C2CCC(CC1c1cccc(/C=C\I)c1)N2 (stereo unspecified),2.98

# System: Caudate
# Test: Drug uptake in anesthetized cynomolgus monkey brain caudate after 35 mins postinjection
# Type: ADME, organism-based, Macaca fascicularis, Caudate nucleus
# Details: in vivo
row,Compound,Drug uptake
1,O=C(OCC[18F])C1C2CCC(CC1c1cccc(/C=C\I)c1)N2 (stereo unspecified),3.54

# System: not listed separately
# Test: Ratio of drug uptake in midbrain to cerebellum in anesthetized cynomolgus monkey after 215 mins postinjection
# Type: ADME, organism-based, Macaca fascicularis
# Details: in vivo
row,Compound,Ratio
1,O=C(OCC[18F])C1C2CCC(CC1c1cccc(/C=C\I)c1)N2 (stereo unspecified),2.2

# System: not listed separately
# Test: Ratio of drug uptake in medulla to cerebellum in anesthetized cynomolgus monkey after 0.5 mins postinjection
# Type: ADME, organism-based, Macaca fascicularis
# Details: in vivo
row,Compound,Ratio
1,O=C(OCC[18F])C1C2CCC(CC1c1cccc(/C=C\I)c1)N2 (stereo unspecified),1.6

# System: Putamen
# Test: Drug uptake in anesthetized cynomolgus monkey brain putamen after 45 mins postinjection
# Type: ADME, organism-based, Macaca fascicularis
# Set-up: unit not given here
# Details: in vivo, 0.75 h
row,Compound,Drug uptake
1,O=C(OCC[18F])C1C2CCC(CC1c1cccc(/C=C\I)c1)N2 (stereo unspecified),4.41

# System: Midbrain
# Test: Drug uptake in anesthetized cynomolgus monkey brain midbrain after 165 mins postinjection
# Type: ADME, organism-based, Macaca fascicularis
# Details: in vivo, 2.75 h
row,Compound,Drug uptake
1,O=C(OCC[18F])C1C2CCC(CC1c1cccc(/C=C\I)c1)N2 (stereo unspecified),3.53

# System: not listed separately
# Test: Ratio of drug uptake in midbrain to cerebellum in anesthetized cynomolgus monkey after 9.5 mins postinjection
# Type: ADME, organism-based, Macaca fascicularis
# Details: in vivo
row,Compound,Ratio
1,O=C(OCC[18F])C1C2CCC(CC1c1cccc(/C=C\I)c1)N2 (stereo unspecified),1

# System: Caudate
# Test: Drug uptake in anesthetized cynomolgus monkey brain caudate after 175 mins postinjection
# Type: ADME, organism-based, Macaca fascicularis, Caudate nucleus
# Details: in vivo
row,Compound,Drug uptake
1,O=C(OCC[18F])C1C2CCC(CC1c1cccc(/C=C\I)c1)N2 (stereo unspecified),2.43

# System: Caudate
# Test: Drug uptake in anesthetized cynomolgus monkey brain caudate after 3.5 mins postinjection
# Type: ADME, organism-based, Macaca fascicularis, Caudate nucleus
# Details: in vivo
row,Compound,Drug uptake
1,O=C(OCC[18F])C1C2CCC(CC1c1cccc(/C=C\I)c1)N2 (stereo unspecified),0.79

# System: Pons
# Test: Drug uptake in anesthetized cynomolgus monkey brain pons after 175 mins postinjection
# Type: ADME, organism-based, Macaca fascicularis
# Details: in vivo
row,Compound,Drug uptake
1,O=C(OCC[18F])C1C2CCC(CC1c1cccc(/C=C\I)c1)N2 (stereo unspecified),2.36

# System: Medulla
# Test: Drug uptake in anesthetized cynomolgus monkey brain medulla after 105 mins postinjection
# Type: ADME, organism-based, Macaca fascicularis
# Details: in vivo, 1.75 h
row,Compound,Drug uptake
1,O=C(OCC[18F])C1C2CCC(CC1c1cccc(/C=C\I)c1)N2 (stereo unspecified),3.58

# System: Thalamus
# Test: Drug uptake in anesthetized cynomolgus monkey brain thalamus after 165 mins postinjection
# Type: ADME, organism-based, Macaca fascicularis
# Set-up: unit not given here
# Details: in vivo, 2.75 h
row,Compound,Drug uptake
1,O=C(OCC[18F])C1C2CCC(CC1c1cccc(/C=C\I)c1)N2 (stereo unspecified),2.91

# System: Pons
# Test: Drug uptake in anesthetized cynomolgus monkey brain pons after 9.5 mins postinjection
# Type: ADME, organism-based, Macaca fascicularis
# Details: in vivo
row,Compound,Drug uptake
1,O=C(OCC[18F])C1C2CCC(CC1c1cccc(/C=C\I)c1)N2 (stereo unspecified),2.4

# System: not listed separately
# Test: Drug uptake in anesthetized cynomolgus monkey brain cerebellum after 6.5 mins postinjection
# Type: ADME, organism-based, Macaca fascicularis
# Details: in vivo
row,Compound,Drug uptake
1,O=C(OCC[18F])C1C2CCC(CC1c1cccc(/C=C\I)c1)N2 (stereo unspecified),2.98

# System: not listed separately
# Test: Drug uptake in anesthetized cynomolgus monkey brain frontal lobe after 165 mins postinjection
# Type: ADME, organism-based, Macaca fascicularis
# Details: in vivo, 2.75 h
row,Compound,Drug uptake
1,O=C(OCC[18F])C1C2CCC(CC1c1cccc(/C=C\I)c1)N2 (stereo unspecified),1.81

# System: not listed separately
# Test: Drug uptake in anesthetized cynomolgus monkey brain cerebellum after 1.5 mins postinjection
# Type: ADME, organism-based, Macaca fascicularis
# Details: in vivo, 0.025 h
row,Compound,Drug uptake
1,O=C(OCC[18F])C1C2CCC(CC1c1cccc(/C=C\I)c1)N2 (stereo unspecified),0.11

# System: Medulla
# Test: Drug uptake in anesthetized cynomolgus monkey brain medulla after 18.5 mins postinjection
# Type: ADME, organism-based, Macaca fascicularis
# Details: in vivo
row,Compound,Drug uptake
1,O=C(OCC[18F])C1C2CCC(CC1c1cccc(/C=C\I)c1)N2 (stereo unspecified),3.61
